The target of one series is NMDA receptor NR1/NR2A (Rattus norvegicus, UniProt P35439+Q00959). Briefly: two-electrode voltage clamp, NMDA receptor activity inhibition in Xenopus oocytes (NR1/NR2A). Type of series: cell-based. As to the method:
(§1) To confirm pharmacological function of TsPD, TsPDG, TsSPMG, BsPDG, and Tosyl-SPM synthesized above (synthesized by the method described in Patent Document 1 mentioned above), the effect of these compounds on NMDA receptor was measured by a two-electrode voltage clamp method.
(§2) This method can be carried out in accordance with the method of Masuko et al. (Masuko T. et al., Mol. Pharmacol. 55: 957-969 (1999); Masuko T. et al., Nuerosci. Lett. 371: 30-33 (2004); Masuko T. et al., Chem. Pharm. Bull. 53 (4) 444-447 (2005)). To the oocyte, cRNAs of an NR1 subunit and an NR2 subunit of NMDA receptor were injected in a ratio of 1:5 (NR1: 0.1 to 4 ng, NR2: 0.5 to 20 ng) to obtain the oocyte in which NMDA receptor was expressed.
(§3) The oocytes were cultured in a medium (96 mM NaCl, 2 mM KCl, 1 mM MgCl2, 1.8 mM CaCl2, 5 mM Na-HEPES, 2.5 mM sodium pyruvate, 50 μg/ml gentamicin, pH=7.5) at 19° C. for 1 to 3 days.
(§4) At the measurement date, K^+-BAPTA was injected in the oocytes and then, the activity of the receptors was measured by the two-electrode voltage clamp method (described later) using a recording buffer (96 mM NaCl, 2 mM KCl, 1.8 mM BaCl2, 10 mM Na-HEPES, pH=7.5).
(§5) Note that there is a single type of gene in NR1 and 4 types of genes, namely NR2A to NR2D, in NR2. There are NR1/NR2A, NR1/NR2B, NR1/NR2C and NR1/NR2D subtypes in NMDA receptor. However, NR1/NR2A and NR1/NR2B subtypes are conceivably present widely in the brain. Therefore, the activity inhibitory effects on these two types were measured in the following experiments.
(§6) The two-electrode voltage clamp method was carried out in accordance with the method of Williams et al. (Williams, K. et al., Mol. Pharmacol 38: 85-108). The current flowing through the entire membrane of the oocyte was measured by an amplifier CEZ-1250 (Nihon Kohden Corporation) for the two-electrode voltage clamp method. The electrode was filled with 3M potassium chloride and the resistance was set at 0.4 to 4 MΩ. In measurement, glutamate and glycine were added as NMDA agonists.
(§7) To the oocytes obtained by the aforementioned method, various concentrations of TsPD, TsPDG, TsSPMG, BsPDG and Tosyl-SPM were added. The activity inhibitory effect on […] subtypes was measured at a fixed voltage (Vh) of −70 mV (resting membrane potential).
(§8) As a comparative example, the same measurement is performed by use of Dansyl-SPM represented by the aforementioned formula (III).
(§9) Values obtained from 4 to 5 oocytes were averaged. The average value±S.E.M. was regarded as a measurement value.
For orientation: In two-electrode clamp one electrode senses voltage and the other passes current.

In another series the target is NMDA receptor NR1/NR2B (Rattus norvegicus, UniProt P35439+Q00960). Briefly: two-electrode voltage clamp, NMDA receptor activity inhibition in Xenopus oocytes (NR1/NR2B). Type of series: cell-based. As to the method: as §1, §2, §3, §4, §5, §6, §7, §8, §9
NMDA receptor NR1/NR2B, sequence (Q00960 27-1482, other chains not shown): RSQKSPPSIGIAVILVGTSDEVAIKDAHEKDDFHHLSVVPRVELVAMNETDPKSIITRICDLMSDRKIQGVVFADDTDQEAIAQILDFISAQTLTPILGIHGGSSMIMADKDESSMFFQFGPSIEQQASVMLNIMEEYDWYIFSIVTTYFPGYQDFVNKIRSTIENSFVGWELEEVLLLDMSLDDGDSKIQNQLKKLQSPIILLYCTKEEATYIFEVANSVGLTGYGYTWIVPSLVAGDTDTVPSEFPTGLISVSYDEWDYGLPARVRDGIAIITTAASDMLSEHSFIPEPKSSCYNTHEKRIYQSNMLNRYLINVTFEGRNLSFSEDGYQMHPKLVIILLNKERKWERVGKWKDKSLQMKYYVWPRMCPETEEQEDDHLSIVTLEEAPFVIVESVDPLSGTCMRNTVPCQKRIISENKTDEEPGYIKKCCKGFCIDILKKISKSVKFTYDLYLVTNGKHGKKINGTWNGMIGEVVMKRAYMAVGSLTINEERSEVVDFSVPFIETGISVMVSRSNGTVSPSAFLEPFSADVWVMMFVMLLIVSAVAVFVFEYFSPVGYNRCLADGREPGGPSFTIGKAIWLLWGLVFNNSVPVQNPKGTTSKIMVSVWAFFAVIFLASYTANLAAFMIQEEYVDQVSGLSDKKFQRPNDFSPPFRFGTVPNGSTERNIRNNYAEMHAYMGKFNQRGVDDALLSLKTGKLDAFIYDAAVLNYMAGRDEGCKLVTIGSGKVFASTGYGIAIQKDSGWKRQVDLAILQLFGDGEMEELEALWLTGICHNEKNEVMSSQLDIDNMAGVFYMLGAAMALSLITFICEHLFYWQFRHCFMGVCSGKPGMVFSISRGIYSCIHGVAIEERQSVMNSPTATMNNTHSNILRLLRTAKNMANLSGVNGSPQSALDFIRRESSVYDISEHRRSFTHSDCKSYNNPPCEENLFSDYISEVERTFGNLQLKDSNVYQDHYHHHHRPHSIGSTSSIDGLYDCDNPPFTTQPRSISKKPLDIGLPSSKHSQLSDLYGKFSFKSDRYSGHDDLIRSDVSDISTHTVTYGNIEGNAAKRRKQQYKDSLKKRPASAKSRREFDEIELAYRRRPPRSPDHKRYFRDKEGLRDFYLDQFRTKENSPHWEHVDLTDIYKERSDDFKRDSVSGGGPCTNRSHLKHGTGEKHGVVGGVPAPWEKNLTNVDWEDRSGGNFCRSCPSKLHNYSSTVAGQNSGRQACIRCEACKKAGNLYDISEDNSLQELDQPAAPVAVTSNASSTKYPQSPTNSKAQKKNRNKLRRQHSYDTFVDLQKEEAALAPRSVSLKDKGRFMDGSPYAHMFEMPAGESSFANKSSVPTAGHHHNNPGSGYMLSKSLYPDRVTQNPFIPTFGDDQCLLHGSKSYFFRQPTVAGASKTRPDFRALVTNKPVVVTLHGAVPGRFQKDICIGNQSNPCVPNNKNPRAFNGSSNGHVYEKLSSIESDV
Series [1] can be described thus: cytotoxicity test, Alamar blue assay. The format is cell-based. As to conditions: human, 24 hours exposure, read-out: IC50 (concentration at which respiratory activity is 50%). As to the method: A cytotoxicity test was carried out with respect to TsPD, TsPDG, TsSPMG, BsPDG and Tosyl-SPM. Also in this test, Dansyl-SPM was used in a comparative example.
SH-SY5Y neuroblastoma cell line was purchased from the American Type Culture Collection. The cells were cultured in a D-MEM medium to which penicillin (100 U/ml), streptomycin (100 U/ml) and inactivated fetal bovine serum (Gibco) were added. The cells were maintained in a CO2 incubator at 37° C. and kept under the condition of 95% air and 5% CO2.
Undifferentiated SH-SY5Y cells were exposed to various concentrations of polyamine derivatives for 24 hours. An Alamar blue stock solution was transferred to a 96 well plate. The final assay volume was set at 100 μl/well and the final concentration of the Alamar blue was set at 10%. Six hours later, reduced Alamar blue was measured at a wavelength of 570 nm (FIG. 3). A survival rate (%) of the cells exposed to a polyamine derivative for 24 hours was expressed by a relative value of respiratory activity of the cells based on respiratory activity (100%) of mitochondria of the cells to which no drug is added.
In general terms: Resazurin is reduced to fluorescent resorufin, in cell work by metabolically active cells.

For series [2], the system named is Rat hippocampal primary culture cells. Put plainly: protective effect against nerve cell death induced by glutamate (lactate dehydrogenase release). The format is cell-based. The settings on record: glutamate exposure one hour, LDH release after 24 hours. As to the method:
(§10) Next, the protective effect of polyamine derivatives against nerve cell death due to excitotoxicity was investigated. Rat hippocampal primary culture cells were cultured for seven days and exposed to glutamate or NMDA for one hour. Nerve cell death induced in this manner was evaluated based on lactate dehydrogenase release after 24 hours as an index, significant cell death was observed. In addition, it was observed that nerve cell death caused by glutamate and NMDA exposure has concentration dependency.
On the technique in general: LDH leaks from cells whose membrane has failed.

The test system is the same in series [3]. Briefly: protective effect against nerve cell death induced by NMDA (lactate dehydrogenase release). The settings on record: NMDA exposure one hour, LDH release after 24 hours. Type of series: cell-based. As to the method: as §10
In series [4] the test system is mouse convulsion induced by NMDA. Briefly: suppression of NMDA-induced convulsion in mouse (permeability through the blood brain barrier). Type of series: in vivo. As to the method: Polyamine derivatives according to the present invention were evaluated for permeability through the blood brain barrier.
When 100 mg/kg NMDA was injected into a mouse abdominal cavity, convulsion is induced several minutes later. Then, the convulsion suppression effect of a polyamine derivative on mouse convulsion induced by NMDA was investigated.
When 0.5 mg/kg TsPDG and BsPDG were intravenously administered into a mouse 30 minutes before NMDA injection, the time of convulsion induced by NMDA was reduced by 43% and 39%. This reduction rate of convulsion time was equivalent to that (38%) when 10 mg/kg memantine intravenously administered.

In another series the target is NMDA receptor. As to conditions: read-out: IC50 of memantine (NMDA receptor); cited from earlier work.
The mark [5] stands for this setting: Xenopus oocytes, Vh -70 mV, glutamate and glycine as agonists, mean ± S.E.M. of 4 to 5 oocytes, read-out: IC50 NR1/NR2A.
Setting [6] is: Xenopus oocytes, Vh -70 mV, glutamate and glycine as agonists, mean ± S.E.M. of 4 to 5 oocytes, read-out: IC50 NR1/NR2B.
Setting [7] is: undifferentiated SH-SY5Y neuroblastoma cells.
Where [8] appears, read: 0.5 mg/kg intravenously 30 minutes before 100 mg/kg NMDA i.p.

Counter-ions that a name gives are not always drawn. Like-named read-outs stand apart in the source and are kept apart here. Some results are limits rather than exact numbers.

NMDA receptor NR1/NR2A, sequence (Q00959 23-1464, other chains not shown): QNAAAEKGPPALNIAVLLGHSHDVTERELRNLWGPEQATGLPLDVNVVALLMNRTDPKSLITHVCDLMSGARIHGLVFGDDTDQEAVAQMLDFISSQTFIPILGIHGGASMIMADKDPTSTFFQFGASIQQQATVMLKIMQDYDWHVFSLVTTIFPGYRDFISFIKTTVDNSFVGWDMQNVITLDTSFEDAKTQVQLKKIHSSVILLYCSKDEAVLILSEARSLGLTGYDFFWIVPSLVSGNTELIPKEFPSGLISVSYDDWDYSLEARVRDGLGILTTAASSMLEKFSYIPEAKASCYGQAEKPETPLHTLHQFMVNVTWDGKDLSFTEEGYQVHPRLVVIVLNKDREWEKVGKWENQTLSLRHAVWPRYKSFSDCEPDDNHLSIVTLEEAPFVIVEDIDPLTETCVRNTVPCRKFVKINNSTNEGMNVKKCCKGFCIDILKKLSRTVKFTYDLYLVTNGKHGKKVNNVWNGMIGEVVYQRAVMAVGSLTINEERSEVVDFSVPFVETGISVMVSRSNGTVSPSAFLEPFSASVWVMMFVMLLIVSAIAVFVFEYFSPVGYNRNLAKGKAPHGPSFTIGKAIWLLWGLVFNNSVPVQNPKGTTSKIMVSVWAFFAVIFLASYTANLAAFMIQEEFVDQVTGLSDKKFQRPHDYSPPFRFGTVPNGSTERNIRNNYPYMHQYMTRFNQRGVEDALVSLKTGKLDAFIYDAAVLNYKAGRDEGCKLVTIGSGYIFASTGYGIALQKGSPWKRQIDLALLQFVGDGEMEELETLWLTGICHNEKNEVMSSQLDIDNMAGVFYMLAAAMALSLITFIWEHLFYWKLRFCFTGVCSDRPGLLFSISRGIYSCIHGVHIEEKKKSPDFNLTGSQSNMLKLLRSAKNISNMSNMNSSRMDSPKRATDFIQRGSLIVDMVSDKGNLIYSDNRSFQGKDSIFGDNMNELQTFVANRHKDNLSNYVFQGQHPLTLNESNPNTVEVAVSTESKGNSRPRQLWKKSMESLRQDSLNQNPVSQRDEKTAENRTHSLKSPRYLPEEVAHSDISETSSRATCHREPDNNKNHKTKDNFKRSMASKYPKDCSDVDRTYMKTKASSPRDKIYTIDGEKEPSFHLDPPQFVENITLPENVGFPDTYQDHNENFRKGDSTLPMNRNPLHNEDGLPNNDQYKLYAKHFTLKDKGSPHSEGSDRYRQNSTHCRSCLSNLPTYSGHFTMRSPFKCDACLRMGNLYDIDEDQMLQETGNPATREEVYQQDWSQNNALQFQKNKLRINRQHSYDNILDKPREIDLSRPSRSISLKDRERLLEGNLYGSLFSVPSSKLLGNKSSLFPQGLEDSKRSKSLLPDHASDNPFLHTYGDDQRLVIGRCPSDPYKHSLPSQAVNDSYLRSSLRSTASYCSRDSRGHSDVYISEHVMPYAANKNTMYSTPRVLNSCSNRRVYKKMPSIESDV

On to `Cc1ccc(S(=O)(=O)NCCCNCCCCNCCCNC(=N)N)cc1` [TsSPMG], for which the IC50 was found to be 0.32 ± 0.03 µM at NMDA receptor NR1/NR2A (setting [5]) and 0.37 ± 0.05 µM on NMDA receptor NR1/NR2B (setting [6]). Further, the IC50 at 24 h in series [1] (undifferentiated SH-SY5Y cells) came to 2640 ± 37 µM.
`Cc1ccc(S(=O)(=O)NCCCCNCCCCNCCCCN)cc1` [TsPD]: the figures for the IC50 at NMDA receptor NR1/NR2A (setting [5]) and at NMDA receptor NR1/NR2B (setting [6]) were 0.074 ± 0.003 µM and 0.15 ± 0.001 µM, respectively. Further, in series [1] (undifferentiated SH-SY5Y cells), the IC50 at 24 h came out at 1830 ± 46 µM. The “suppression of nerve cell death induced by glutamate” value (shortened to “suppression … by glutamate”) in series [2] (10 μM compound) was “significantly suppressed”. In series [3] (10 μM compound), the “suppression of nerve cell death induced by NMDA” value (“suppression … by NMDA” below) is on record as “completely suppressed”.
Turning to `CC12CC3CC(C)(C1)CC(N)(C3)C2` [memantine, memantine hydrochloride, reference compound], in series [4] (10 mg/kg intravenously), the “reduction of the time of convulsion induced by NMDA” value (“reduction” for short) was 38%. In addition, the IC50 at NMDA receptor is 1 µM.
With `CN(C)c1cccc2c(S(=O)(=O)NCCCNCCCCNCCCN)cccc12` [Dansyl-SPM, N^1-Dansyl-Spermine, reference compound], the IC50 at NMDA receptor NR1/NR2A (setting [5]) amounted to 0.27 ± 0.03 µM; at NMDA receptor NR1/NR2B (setting [6]) it was 0.31 ± 0.03 µM. The IC50 at 24 h in series [1] (setting [7]) stood at 30 ± 1 µM.
The corresponding values for `Cc1ccc(S(=O)(=O)NCCCNCCCCNCCCN)cc1` [Tosyl-SPM, N^1-Tosyl-Spermine, reference compound] are 0.35 ± 0.01 µM, 0.4 ± 0.01 µM and 336 ± 7 µM.
Regarding `Cc1ccc(S(=O)(=O)NCCCCNCCCCNCCCCNC(=N)N)cc1` [TsPDG], the IC50 turned out to be 0.017 ± 0.002 µM on NMDA receptor NR1/NR2A and 0.027 ± 0.002 µM against NMDA receptor NR1/NR2B. The IC50 at 24 h in series [1] (undifferentiated SH-SY5Y cells) worked out at 2870 ± 66 µM. Besides, the “suppression … by glutamate” value in series [2] (1 μM compound) is recorded as “significantly suppressed”. Also, in series [3] (1 μM compound), the “suppression … by NMDA” value is given as “completely suppressed”. The “reduction” value in series [4] (setting [8]) was 43%.
With `CCCCS(=O)(=O)NCCCCNCCCCNCCCCNC(=N)N` [BsPDG], the values for the IC50 on NMDA receptor NR1/NR2A (setting [5]) and on NMDA receptor NR1/NR2B (setting [6]) were 0.015 ± 0.001 µM and 0.024 ± 0.003 µM, respectively. In addition, the IC50 at 24 h in series [1] (undifferentiated SH-SY5Y cells) is over 3000 µM. For the same molecule, in series [2] (1 μM compound), the “suppression … by glutamate” value is given as “significantly suppressed”. For the same molecule, the “suppression … by NMDA” value in series [3] (1 μM compound) was “completely suppressed”. For the same molecule, in series [4] (setting [8]), the “reduction” value is 39%.

The record behind these values is patent US8779195B2, “Polyamine derivatives” (Nihon University, priority 2006, dated 2014).
